Where “and” joins values, the source holds several entries; their conditions need not be identical. Identical values can stand only once. Toxic doses and inconclusive results are not listed.
Test system: P388 leukemia ip, CD2F1 mice, survival T/C
Test: NCI In Vivo Anticancer Drug Screen. Data for tumor model P388 Leukemia (intraperitoneal) in CD2F1 (CDF1) mice
Conditions: endpoint: median survival time, higher = longer survival
In short: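 Mice carrying the transplanted tumor received test compound or vehicle. Survival was recorded in each group, and the value is the treated-group measurement divided by that of the vehicle-treated control group.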

[1] = dose: 100.0 mg/kg/injection, schedule: Q01DX005 (ip), vehicle: saline with Tween-80
[2] = dose: 50.0 mg/kg/injection, schedule: Q01DX009 (ip), vehicle: Klucel (hydroxypropylcellulose) (HPC)
[3] = dose: 200.0 mg/kg/injection, schedule: Q01DX009 (ip), vehicle: Klucel (hydroxypropylcellulose) (HPC)
[4] = dose: 100.0 mg/kg/injection, schedule: Q01DX009 (ip), vehicle: Klucel (hydroxypropylcellulose) (HPC)

COc1ccc2c(c1)CCC1=C2N=CN2CCN=C12
T/C (dose: 100.0 mg/kg/injection, schedule: Q04DX002 (ip), vehicle: saline with Tween-80): 102 % of control

O=C(OCCN1CCN(CCOC(=O)C(Cl)(c2ccccc2)c2ccccc2)CC1)C(Cl)(c1ccccc1)c1ccccc1
T/C (dose: 6.25 mg/kg/injection, schedule: Q01DX005 (ip), vehicle: saline with Tween-80): 95 % of control
T/C (dose: 12.5 mg/kg/injection, schedule: Q01DX005 (ip), vehicle: saline with Tween-80): 93 % of control
T/C (dose: 25.0 mg/kg/injection, schedule: Q01DX005 (ip), vehicle: saline with Tween-80): 95 % of control
T/C [1]: 90 % of control

CCN(CC)CCCC(C)Nc1nc(-c2ccc(OC)cc2)nc2cc(Cl)ccc12 (centres undefined)
T/C (dose: 50.0 mg/kg/injection, schedule: Q01DX005 (ip), vehicle: saline): 102 % of control
T/C (dose: 100.0 mg/kg/injection, schedule: Q01DX005 (ip), vehicle: saline): 93 % of control

CCOC(=O)C(=O)C1Cc2c(C)cc3cnc(OCC)cc3c2C1=O (centres undefined)
T/C (dose: 12.5 mg/kg/injection, schedule: Q01DX009 (ip), vehicle: distilled water + Tween-80): 92 % of control
T/C (dose: 25.0 mg/kg/injection, schedule: Q01DX009 (ip), vehicle: distilled water + Tween-80): 89 % of control
T/C (dose: 100.0 mg/kg/injection, schedule: Q01DX009 (ip), vehicle: distilled water + Tween-80): 92 % of control
T/C (dose: 200.0 mg/kg/injection, schedule: Q01DX009 (ip), vehicle: distilled water + Tween-80): 92 % of control

CC(C)(N)CNc1ccccc1
T/C (dose: 25.0 mg/kg/injection, schedule: Q01DX009 (ip), vehicle: saline): 111 % of control
T/C (dose: 50.0 mg/kg/injection, schedule: Q01DX009 (ip), vehicle: saline): 117 % of control
T/C (dose: 100.0 mg/kg/injection, schedule: Q01DX009 (ip), vehicle: saline): 120 % of control

COc1cc(N=Nc2ccccc2)cc(/C=N\NC(=S)Nc2ccc(C)cc2)c1O
T/C (dose: 50.0 mg/kg/injection, schedule: Q01DX005 (ip), vehicle: saline with Tween-80): 94 % of control
T/C [1]: 96 % of control

CCOc1ccccc1/C=N\NC(=O)C(=O)N/N=C\c1ccccc1OCC
T/C (dose: 1.56 mg/kg/injection, schedule: Q01DX009 (ip), vehicle: Klucel (hydroxypropylcellulose) (HPC)): 98 % of control
T/C (dose: 3.12 mg/kg/injection, schedule: Q01DX009 (ip), vehicle: Klucel (hydroxypropylcellulose) (HPC)): 94 % of control
T/C (dose: 6.25 mg/kg/injection, schedule: Q01DX009 (ip), vehicle: Klucel (hydroxypropylcellulose) (HPC)): 86 % of control and 91 % of control
T/C [2]: 90 % of control
T/C [3]: 97 % of control

CCCc1n(O)c(C)c(C)[n+]1[O-]
T/C (dose: 50.0 mg/kg/injection, schedule: Q01DX009 (ip), vehicle: saline with Tween-80): 91 % of control
T/C (dose: 100.0 mg/kg/injection, schedule: Q01DX009 (ip), vehicle: saline with Tween-80): 100 % of control
T/C (dose: 200.0 mg/kg/injection, schedule: Q01DX009 (ip), vehicle: saline with Tween-80): 104 % of control

CCOC(=O)n1c(=O)oc2c(Br)cc(Br)cc21
T/C (dose: 50.0 mg/kg/injection, schedule: Q04DX002 (ip), vehicle: Klucel (hydroxypropylcellulose) (HPC)): 96 % of control
T/C (dose: 100.0 mg/kg/injection, schedule: Q04DX002 (ip), vehicle: Klucel (hydroxypropylcellulose) (HPC)): 99 % of control
T/C (dose: 200.0 mg/kg/injection, schedule: Q04DX002 (ip), vehicle: Klucel (hydroxypropylcellulose) (HPC)): 93 % of control

CCn1c2ccccc2c2ccc(N=Cc3ccc([N+](=O)[O-])cc3)cc21
T/C [2]: 99 % of control
T/C [4]: 100 % of control
T/C [3]: 99 % of control

CCN(CC)C1CS(=O)(=O)OC2=C1CCCc1ccccc12 (centres undefined)
T/C (dose: 25.0 mg/kg/injection, schedule: Q01DX009 (ip), vehicle: Klucel (hydroxypropylcellulose) (HPC)): 102 % of control
T/C [2]: 104 % of control
T/C [4]: 95 % of control

CCOc1ccc(-c2nc(Cl)nc(Cl)n2)c2ccccc12
T/C (dose: 60.0 mg/kg/injection, schedule: Q01DX005 (ip), vehicle: Klucel (hydroxypropylcellulose) (HPC)): 104 % of control
T/C (dose: 120.0 mg/kg/injection, schedule: Q01DX005 (ip), vehicle: Klucel (hydroxypropylcellulose) (HPC)): 111 % of control

NNC(=O)c1cnn(-c2ccccc2)c1N
T/C (dose: 15.0 mg/kg/injection, schedule: Q01DX005 (ip), vehicle: saline with Tween-80): 99 % of control
T/C (dose: 30.0 mg/kg/injection, schedule: Q01DX005 (ip), vehicle: saline with Tween-80): 93 % of control
T/C (dose: 60.0 mg/kg/injection, schedule: Q01DX005 (ip), vehicle: saline with Tween-80): 99 % of control and 94 % of control

COC(=O)C1CC(c2ccccc2)N(c2ccccc2)O1 (centres undefined)
T/C [2]: 100 % of control
T/C [4]: 103 % of control
T/C [3]: 100 % of control

CC(=O)Nc1cccc(/C=C/C=C/c2ccc([N+](=O)[O-])cc2)c1
T/C (dose: 37.5 mg/kg/injection, schedule: Q01DX001 (ip), vehicle: saline with Tween-80): 100 % of control
T/C (dose: 75.0 mg/kg/injection, schedule: Q01DX001 (ip), vehicle: saline with Tween-80): 95 % of control
T/C (dose: 150.0 mg/kg/injection, schedule: Q01DX001 (ip), vehicle: saline with Tween-80): 90 % of control
